ChEMBL document CHEMBL6115002, “Discovery of novel sitolactone derivative leading to PANoptosis and differentiation of acute myeloid leukemia cells” (Eur J Med Chem, 2025)
pIC50: −log10 of the molar value. The source made the active and inactive calls. The calls are words filed in the database; no cut-off is given here.

How the values were obtained:
[1] = (§1) Toxicity in Balb/c mouse implanted with mouse WEHI-3 cells assessed as animal survival at 100 to 200 mg/kg, po administered (4aR,6aS,7S,9aS,9bS)-2-(((S)-2-(hydroxymethyl)pyrrolidin-1-yl)methyl)-6a-methyl7 ((triisopropylsilyl)oxy)decahydrocyclopenta[f]chromen-3(2H)-one as prodrug once daily and measured after 15 days; assay type: organism-based; settings: in vivo, 360 h, dose 100-200 mg/kg, time 15 day
Kasumi 1 [2] = assay: Induction of cell cycle arrest in human Kasumi 1 cells assessed as increase in accumulation of cells at G1 phase at 0.25 uM incubated for 24 hrs by propidium iodide staining based flow cytometric analysis (reference value: 50.41%); assay type: functional
NCI-H460 = assay: Inhibition of tumor sphere formation in human NCI-H460 cells incubated for 24 hrs; assay type: functional, cell-based
Kasumi 1 [3] = assay: Induction of cell cycle arrest in human Kasumi 1 cells assessed as increase in accumulation of cells at G2 phase at 0.25 uM incubated for 24 hrs by propidium iodide staining based flow cytometric analysis (reference value: 9.82%); assay type: functional
WEHI-3 [4] = assay: Induction of pyroptosis in mouse WEHI-3 cells assessed as effect on cleaved N-GSDMB at 0.6 to 2.5 uM incubated for 24 hrs by Western blotting analysis; assay type: functional, cell-based; settings: dose 0.6-2.5 µM
PANC-1 = assay: Antiproliferative activity against human PANC-1 cells assessed as inhibition of cell proliferation incubated for 72 hrs by CCK-8 assay; assay type: functional, cell-based; settings: PANC-1, 72 h
[5] = as §1, with “separation between white and red pulp area in spleen” for “animal survival”; assay type: organism-based; settings: in vivo, 360 h, dose 100-200 mg/kg, time 15 day
Kasumi 1 [6] = assay: Induction of cell differentiation in human Kasumi 1 cells assessed as lobulated nuclei at 1 uM incubated for 24 hrs by giemsa-Wrights staining based analysis; assay type: functional
Jurkat = assay: Antiproliferative activity against human Jurkat cells assessed as inhibition of cell proliferation incubated for 72 hrs by CCK-8 assay; assay type: functional, cell-based
SW1990 = assay: Antiproliferative activity against human SW1990 cells assessed as inhibition of cell proliferation incubated for 72 hrs by CCK-8 assay; assay type: functional, cell-based; settings: SW1990, 72 h
Kasumi 1 [7] = assay: Induction of cell differentiation in human Kasumi 1 cells assessed as increase in CD11B expression by Western blotting analysis; assay type: functional, cell-based; settings: dose 0.25-1 µM
HCT-116 [8] = assay: Anti-cancer activity against human HCT-116 cells assessed as reduction in size of spheroids incubated for 24 hrs; assay type: functional, cell-based
[9] = Antiproliferative activity against mouse WEHI-3 cells assessed as inhibition cell proliferation incubated for 72 hrs by MTT assay; assay type: functional, cell-based; settings: WEHI-3, 72 h
PC-3 = assay: Antiproliferative activity against human PC-3 cells assessed as inhibition of cell proliferation incubated for 72 hrs by CCK-8 assay; assay type: functional, cell-based; settings: PC-3, 72 h
WEHI-3 [10] = assay: Induction of cell differentiation in mouse WEHI-3 cells assessed as lobulated nuclei at 1 uM incubated for 24 hrs by giemsa-Wrights staining based analysis; assay type: functional
Kasumi 1 [11] = assay: Induction of cell cycle arrest in human Kasumi 1 cells assessed as increase in accumulation of cells at G2 phase at 0.5 uM incubated for 24 hrs by propidium iodide staining based flow cytometric analysis (reference value: 9.82%); assay type: functional
[12] = Induction of cell cycle arrest in mouse WEHI-3 cells assessed as increase in accumulation of cells at G2 phase at 1 uM incubated for 24 hrs by propidium iodide staining based flow cytometric analysis (reference value: 1.85%); assay type: functional
[13] = Induction of cell cycle arrest in mouse WEHI-3 cells assessed as increase in accumulation of cells at S phase at 0.25 uM incubated for 24 hrs by propidium iodide staining based flow cytometric analysis (reference value: 51.22%); assay type: functional
Kasumi 1 [14] = assay: PANoptosis in human Kasumi 1 cells assessed as cell death at 0.6 uM incubated for 72 hrs by optical microscopic analysis; assay type: functional, cell-based
Kasumi 1 [15] = assay: Induction of cell cycle arrest in human Kasumi 1 cells assessed as increase in accumulation of cells at S phase at 0.5 uM incubated for 24 hrs by propidium iodide staining based flow cytometric analysis (reference value: 39.77%); assay type: functional
Kasumi 1 [16] = assay: Induction of apoptosis in human Kasumi 1 cells assessed as increase in cleaved PARP-1 level incubated for 72 hrs by Western blotting analysis; assay type: functional, cell-based; settings: dose 0.625-5 µM
WEHI-3 [17] = assay: Induction of apoptosis in mouse WEHI-3 cells assessed as increase in caspase-3 level incubated for 72 hrs by Western blotting analysis; assay type: functional, cell-based; settings: dose 0.625-5 µM
HL-60 = assay: Antiproliferative activity against human HL-60 cells assessed as inhibition of cell proliferation incubated for 72 hrs by CCK-8 assay; assay type: functional, cell-based; settings: HL-60, 72 h
Kasumi 1 [18] = assay: Induction of cell cycle arrest in human Kasumi 1 cells assessed as increase in accumulation of cells at G1 phase at 1 uM incubated for 24 hrs by propidium iodide staining based flow cytometric analysis (reference value: 50.41%); assay type: functional
WEHI-3 [19] = assay: Induction of cell cycle arrest in mouse WEHI-3 cells assessed as increase in P21 level at 0.15 to 1.2 uM incubated for 24 hrs by Western blotting analysis; assay type: functional, cell-based; settings: dose 0.15-1.2 µM
NCI-H358 = assay: Antiproliferative activity against human NCI-H358 cells assessed as inhibition of cell proliferation incubated for 72 hrs by CCK-8 assay; assay type: functional, cell-based; settings: NCI-H358, 72 h
Kasumi 1 [20] = assay: Inhibition of colony formation in human Kasumi 1 cells incubated for 15 days by crystal violet staining based analysis; assay type: functional, cell-based; settings: dose 0.5-1 µM, time 15.0 day
WEHI-3 [21] = assay: Induction of pyroptosis in mouse WEHI-3 cells assessed as increase in p-MLKL level at 0.625 to 5 uM incubated for 72 hrs by Western blotting analysis; assay type: functional, cell-based; settings: dose 0.625-5 µM
[22] = Induction of cell cycle arrest in mouse WEHI-3 cells assessed as increase in accumulation of cells at G1 phase at 1 uM incubated for 24 hrs by propidium iodide staining based flow cytometric analysis (reference value: 46.93%); assay type: functional
[23] = Induction of cell cycle arrest in mouse WEHI-3 cells assessed as increase in accumulation of cells at G1 phase at 0.5 uM incubated for 24 hrs by propidium iodide staining based flow cytometric analysis (reference value: 46.93%); assay type: functional
HCT-116 [24] = assay: Inhibition of tumor sphere formation in human HCT-116 cells at 1.25 uM incubated for 24 hrs; assay type: functional, cell-based
Kasumi 1 [25] = assay: Induction of cell cycle arrest in human Kasumi 1 cells assessed as increase in accumulation of cells at S phase at 1 uM incubated for 24 hrs by propidium iodide staining based flow cytometric analysis (reference value: 39.77%); assay type: functional
[26] = Permeability of compound in human Caco-2 cells; assay type: ADME, cell-based
Z-138 = assay: Antiproliferative activity against human Z138 cells assessed as inhibition of cell proliferation incubated for 72 hrs by CCK-8 assay; assay type: functional, cell-based; settings: Z-138, 72 h
Kasumi 1 [27] = assay: Antiproliferative activity against human Kasumi 1 cells assessed as inhibition cell proliferation incubated for 72 hrs by MTT assay; assay type: functional, cell-based; settings: Kasumi 1, 72 h
[28] = as §1, with “change in body weight” for “animal survival”; assay type: organism-based; settings: in vivo, 360 h, dose 100-200 mg/kg, time 15 day
RKO = assay: Antiproliferative activity against human RKO cells assessed as inhibition of cell proliferation incubated for 72 hrs by CCK-8 assay; assay type: functional, cell-based

SMILES: C=C1C[C@@H]2[C@@H](CC[C@]3(C)[C@@H](O[Si](C(C)C)(C(C)C)C(C)C)CC[C@@H]23)OC1=O
- Activity [1]: Non-toxic
- Activity (Kasumi 1 [2]): 52.67%
- inhibition (NCI-H460): Active
- Activity (Kasumi 1 [3]): 10.77%
- Activity (WEHI-3 [4]): Active
- pIC50 (PANC-1): 5.88
- Activity [5]: Non-toxic
- Activity (Kasumi 1 [6]): Active
- pIC50 (Jurkat): 5.59
- pIC50 (SW1990): < 5.00
- Activity (Kasumi 1 [7]): Dose-dependent-effect
- Activity (HCT-116 [8]): Active
- pIC50 [9]: 6.38
- pIC50 (PC-3): 5.68
- Activity (WEHI-3 [10]): Active
- Activity (Kasumi 1 [11]): 14.84%
- Activity [12]: 3.39%
- Activity [13]: 46.46%
- Activity (Kasumi 1 [14]): Active
- Activity (Kasumi 1 [15]): 31.64%
- Activity (Kasumi 1 [16]): Dose-dependent-effect
- Activity (WEHI-3 [17]): Dose-dependent-effect
- pIC50 (HL-60): 6.05
- Activity (Kasumi 1 [18]): 58.52%
- Activity (WEHI-3 [19]): Active
- pIC50 (NCI-H358): 5.75
- inhibition (Kasumi 1 [20]): Dose-dependent-effect
- Activity (WEHI-3 [21]): Active
- Activity [22]: 64.54%
- Activity [23]: 53.15%
- inhibition (HCT-116 [24]): Active
- Activity (Kasumi 1 [25]): 22.53%
- permeability [26]: Permeable
- pIC50 (Z-138): 5.73
- pIC50 (Kasumi 1 [27]): 6.24
- Activity [28]: Non-toxic
- pIC50 (RKO): 5.68
